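Results reflect a 48-hour exposure of cells in 96-well plates to compound at five concentrations. GI50 is the concentration that inhibits growth by half.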 Calls of active or inactive are those of the source. Cut-off read from the data, not from the text of the source: active = GI50 up to about 1.1 µM and inactive = higher.
Tests used:
Assay in all cases: DTP human tumour cell line panel, 48 h
A498 = test system: A498
BT-549 = test system: BT-549
DU-145 = test system: DU-145
HL-60 = test system: HL-60
HOP-62 = test system: HOP-62
HT-29 = test system: HT-29
Hs-578T = test system: Hs-578T
K562 = test system: K562
LOX IMVI = test system: LOX IMVI
M14 = test system: M14
MOLT-4 = test system: MOLT-4
NCI-H226 = test system: NCI-H226
NCI-H460 = test system: NCI-H460
OVCAR-3 = test system: OVCAR-3
OVCAR-5 = test system: OVCAR-5
SK-MEL-2 = test system: SK-MEL-2
SNB-19 = test system: SNB-19
SW-620 = test system: SW-620
U-251 = test system: U-251
UACC-257 = test system: UACC-257

Row | Structure (SMILES) | GI50 (A498) | GI50 (BT-549) | GI50 (DU-145) | GI50 (HL-60) | GI50 (HOP-62) | GI50 (HT-29) | GI50 (Hs-578T) | GI50 (K562) | GI50 (LOX IMVI) | GI50 (M14) | GI50 (MOLT-4) | GI50 (NCI-H226) | GI50 (NCI-H460) | GI50 (OVCAR-3) | GI50 (OVCAR-5) | GI50 (SK-MEL-2) | GI50 (SNB-19) | GI50 (SW-620) | GI50 (U-251) | GI50 (UACC-257)
1 | COc1ccc(Br)c2c1CC(C(=O)O)CC2 (stereo not given) | > 100 µM (inactive) | > 100 µM (inactive) | > 100 µM (inactive) | > 100 µM (inactive) | > 100 µM (inactive) | > 100 µM (inactive) | > 100 µM (inactive) | > 100 µM (inactive) | > 100 µM (inactive) | > 100 µM (inactive) | > 100 µM (inactive) | > 100 µM (inactive) | > 100 µM (inactive) | > 100 µM (inactive) | > 100 µM (inactive) | > 100 µM (inactive) | > 100 µM (inactive) | > 100 µM (inactive) | > 100 µM (inactive) | > 100 µM (inactive)
2 | O=C1N=C(c2ccccc2)OC1C(=O)c1ccccc1 (stereo not given) | > 100 µM (inactive) | > 100 µM (inactive) | > 100 µM (inactive) | > 100 µM (inactive) | > 100 µM (inactive) | > 100 µM (inactive) | > 100 µM (inactive) | > 100 µM (inactive) | > 100 µM (inactive) | > 100 µM (inactive) | > 100 µM (inactive) | > 100 µM (inactive) | > 100 µM (inactive) | > 100 µM (inactive) | > 100 µM (inactive) | > 100 µM (inactive) | > 100 µM (inactive) | > 100 µM (inactive) | > 100 µM (inactive) | > 100 µM (inactive)
3 | COc1ccc2c(c1)CC[C@@H]1[C@@H]2CC[C@]2(C)/C(=N/OCCN3CCCC3)CC[C@@H]12 | 3.8 µM (inactive) | 8.07 µM (inactive) | 3.94 µM (inactive) | 1.21 µM (inactive) | 1.98 µM (inactive) | 0.766 µM (active) | 2.65 µM (inactive) | 0.76 µM (active) | 1.57 µM (inactive) | 1.27 µM (inactive) | 1.93 µM (inactive) | 1.95 µM (inactive) | 1.5 µM (inactive) | 5.82 µM (inactive) | 2.79 µM (inactive) | 1.82 µM (inactive) | 11.1 µM (inactive) | 1.95 µM (inactive) | 3.46 µM (inactive) | 1.75 µM (inactive)
4 | OCC1OC(NCCNCCNC2OC(CO)C(O)C(O)C2O)C(O)C(O)C1O (stereo not given) | > 100 µM (inactive) | > 100 µM (inactive) | > 100 µM (inactive) | > 100 µM (inactive) | > 100 µM (inactive) | > 100 µM (inactive) | > 100 µM (inactive) | > 100 µM (inactive) | > 100 µM (inactive) | > 100 µM (inactive) | > 100 µM (inactive) | > 100 µM (inactive) | > 100 µM (inactive) | > 100 µM (inactive) | > 100 µM (inactive) | > 100 µM (inactive) | > 100 µM (inactive) | > 100 µM (inactive) | > 100 µM (inactive) | > 100 µM (inactive)
5 | CCOC(=O)/C=C(\C)Sc1cc(O)c2ccccc2c1O | 18.5 µM (inactive) | 22 µM (inactive) | 9.02 µM (inactive) | 3.77 µM (inactive) | 20.2 µM (inactive) | 22.2 µM (inactive) | 58.9 µM (inactive) | 5.51 µM (inactive) | 5.37 µM (inactive) | 10.8 µM (inactive) | 8.05 µM (inactive) | 25.9 µM (inactive) | 19.5 µM (inactive) | 28.6 µM (inactive) | 24.4 µM (inactive) | 20.9 µM (inactive) | 14.4 µM (inactive) | 5.08 µM (inactive) | 20.3 µM (inactive) | 18.8 µM (inactive)
6 | O=C1c2ccccc2C(=O)c2c1oc1cc(O)c(Cl)cc21 | 19.7 µM (inactive) | 4.97 µM (inactive) | 4.89 µM (inactive) | 6.92 µM (inactive) | 10.7 µM (inactive) | 1.95 µM (inactive) | 2.29 µM (inactive) | 13.5 µM (inactive) | 1.61 µM (inactive) | 3.1 µM (inactive) | 12.3 µM (inactive) | 14 µM (inactive) | 3.04 µM (inactive) | 2.61 µM (inactive) | 11.2 µM (inactive) | 1.99 µM (inactive) | 8.81 µM (inactive) | 8.45 µM (inactive) | 5.36 µM (inactive) | 2.33 µM (inactive)
